Results published in the NIST ThermoML archive (doi:10.1021/acs.jced.8b01097).

Experiment: xn = mol fraction of the nth substance listed
Conditions: 85 kPa, Liquid; for viscosity: Concentric cylinders viscometry; for mass density: Vibrating tube method

CCC(C)O (centres undefined) [butan-2-ol] + CCCO
Conditions	mass density [kg/m3]	viscosity [mPa·s]
293.15 K, x1 = 0.0818	804.1	2.323
293.15 K, x1 = 0.1601	804.6	2.428
293.15 K, x1 = 0.2399	805	2.54
293.15 K, x1 = 0.3499	805.5	2.702
293.15 K, x1 = 0.4399	805.8	2.838
293.15 K, x1 = 0.56	806	3.023
293.15 K, x1 = 0.6515	806.1	3.166
293.15 K, x1 = 0.7385	806.2	3.304
293.15 K, x1 = 0.85	806.3	3.486
293.15 K, x1 = 0.9407	806.3	3.639
293.15 K, x1 = 1	806.2	3.743
298.15 K, x1 = 0.0818	800.1	2.047
298.15 K, x1 = 0.1601	800.6	2.126
298.15 K, x1 = 0.2399	801	2.211
298.15 K, x1 = 0.3499	801.5	2.331
298.15 K, x1 = 0.4399	801.8	2.432
298.15 K, x1 = 0.56	802	2.57
298.15 K, x1 = 0.6515	802.1	2.676
298.15 K, x1 = 0.7385	802.2	2.778
298.15 K, x1 = 0.85	802.2	2.913
298.15 K, x1 = 0.9407	802.1	3.025
298.15 K, x1 = 1	802	3.101
303.15 K, x1 = 0.0818	796.1	1.824
303.15 K, x1 = 0.1601	796.7	1.893
303.15 K, x1 = 0.2399	797.1	1.962
303.15 K, x1 = 0.3499	797.6	2.057
303.15 K, x1 = 0.4399	797.9	2.134
303.15 K, x1 = 0.56	798.1	2.228
303.15 K, x1 = 0.6515	798.2	2.31
303.15 K, x1 = 0.7385	798.2	2.38
303.15 K, x1 = 0.85	798.2	2.466
303.15 K, x1 = 0.9407	798.1	2.536
303.15 K, x1 = 1	797.9	2.579
308.15 K, x1 = 0.0818	792.1	1.619
308.15 K, x1 = 0.1601	792.7	1.672
308.15 K, x1 = 0.2399	793.1	1.724
308.15 K, x1 = 0.3499	793.6	1.795
308.15 K, x1 = 0.4399	793.8	1.851
308.15 K, x1 = 0.56	794	1.925
308.15 K, x1 = 0.6515	794.1	1.98
308.15 K, x1 = 0.7385	794.1	2.03
308.15 K, x1 = 0.85	794	2.089
308.15 K, x1 = 0.9407	793.8	2.135
308.15 K, x1 = 1	793.6	2.162
313.15 K, x1 = 0.0818	788.1	1.444
313.15 K, x1 = 0.1601	788.7	1.485
313.15 K, x1 = 0.2399	789.1	1.525
313.15 K, x1 = 0.3499	789.6	1.58
313.15 K, x1 = 0.4399	789.8	1.622
313.15 K, x1 = 0.56	789.9	1.676
313.15 K, x1 = 0.6515	789.9	1.713
313.15 K, x1 = 0.7385	789.8	1.747
313.15 K, x1 = 0.85	789.7	1.786
313.15 K, x1 = 0.9407	789.5	1.814
313.15 K, x1 = 1	789.2	1.828
318.15 K, x1 = 0.0818	784	1.293
318.15 K, x1 = 0.1601	784.6	1.326
318.15 K, x1 = 0.2399	785.1	1.358
318.15 K, x1 = 0.3499	785.5	1.398
318.15 K, x1 = 0.4399	785.7	1.429
318.15 K, x1 = 0.56	785.8	1.467
318.15 K, x1 = 0.6515	785.7	1.493
318.15 K, x1 = 0.7385	785.6	1.516
318.15 K, x1 = 0.85	785.3	1.54
318.15 K, x1 = 0.9407	785.1	1.555
318.15 K, x1 = 1	784.7	1.559
323.15 K, x1 = 0.0818	779.9	1.16
323.15 K, x1 = 0.1601	780.5	1.185
323.15 K, x1 = 0.2399	781	1.209
323.15 K, x1 = 0.3499	781.4	1.24
323.15 K, x1 = 0.4399	781.5	1.263
323.15 K, x1 = 0.56	781.5	1.29
323.15 K, x1 = 0.6515	781.4	1.308
323.15 K, x1 = 0.7385	781.3	1.322
323.15 K, x1 = 0.85	781	1.336
323.15 K, x1 = 0.9407	780.6	1.341
323.15 K, x1 = 1	780.2	1.318
